viability, melting point and inhibition data for 20 molecules are collected here from publication PMC8759731, “Design, synthesis, and evaluation of novel coumarin-dithiocarbamate derivatives (IDs) as anti-colorectal cancer agents” (Journal of Enzyme Inhibition and Medicinal Chemistry, 2021).

Each structure is given as a SMILES string.

A short description of data set [1]: MTS cell viability assay, NCM460 normal colon epithelial cells. It is filed as cell-based, human. As to conditions: human, NCM460 normal colon epithelial cells, 10 μM. The text has this:
(§1) Human colorectal cancer cell lines including RKO, SW620 and SW480 were purchased from Chinese Academy of Sciences, a typical cell library culture preservation committee (Shanghai, China). Normal human colon epithelial cell line NCM460 was purchased from ATCC (Washington, DC, USA). RPMI-1640 medium (12633020), foetal bovine serum (FBS, 26170043), penicillin-streptomycin (10378016) and phosphate buffered saline (PBS, 70011044) were purchased from Gibco (Eggenstein, Germany). 5-Fluorouracil (5-FU, E0201010050, purity ≥98%) was purchased from Energy Chemical (Shanghai, China). Dimethyl sulfoxide (DMSO, 41639) was obtained from Sigma-Aldrich (St. Louis, MO). 3–(4,5-dimethylthiazol-2-yl)-5–(3-carboxymethoxyphenyl)-2–(4-sulfophenyl)-2H-tetrazolium (MTS, G1111) was purchased from Promega (Madison, WI, USA). All cell lines were cultured in RPMI-1640 medium supplemented with 10% FBS, penicillin (100 units/mL) and streptomycin ([…]) at 37 °C in a humidified atmosphere containing 5% CO2.
(§2) Cell viability was measured via MTS assay. RKO, SW620, SW480 and NCM460 cells were seeded in 96-well plates at a density of 5000 cells per well for 24 h. After treatment with the test compounds at indicated concentration for another 48 h or 72 h at 37 °C, MTS solution was added to each well and incubated for another 30 min at 37 °C. Then, the absorbance at 490 nm was measured by a BioTek Synergy H4 microplate Reader (Vermont, USA). The IC50 values were calculated with Graphpad 7.0 software packages.

The subject of a further data set is SW480 cells. Description: MTS cell viability assay, SW480 cells. It is filed as cell-based. The conditions noted are these: Homo sapiens, 10 μM, 72 h.
Description: as §1, §2

Another data set relates to SW620 cells. Description: MTS cell viability assay, SW620 cells. It is filed as cell-based. The conditions noted are these: Homo sapiens, SW-620, 10 μM, 72 h.
Description: as §1, §2

The test system of the next data set is RKO cells. Description: MTS cell viability assay, RKO cells. It is filed as cell-based. The conditions noted are these: Homo sapiens, 10 μM, 72 h.
Description: as §1, §2

The next data set has as its target T1, BRD4 (BD2) (Homo sapiens, UniProt O60885).
T1 construct: purchased Reaction Biology Corp. RD-11-158
Description: HTRF assay BRD4 (BD2). It is filed as binding. As to conditions: read-out: Inhibitory rate at 10 μM, BRD4 (BD2). How it is done:
(§3) In brief, compounds were serially diluted in Echo plate according to the plate map and DMSO’s final fraction is 0.1%. Then, transferring compounds and DMSO to 384-well assay plate by Echo. After that, 2× Protein and Peptide Mix was added to the assay plate and 2× Detection Mix was then added to assay plate and shook for 30 s. After incubating the plate at room temperature for 1.5 h, the HTRF signals (Excitation wavelength at 340 nm, Emission wavelength at 615 & 665 nm) was read on EnVision (PerkinElmer, UK). (+)-JQ1 (BPS Bioscience, Cat. No. 27402) was used as a positive control. BRD4-1 (RD-11–157) and BRD4-2 (RD-11–158) were purchased from Reaction Biology Corp. (PENN, USA). For Curve fitting, the inhibition values was calculated in Excel using Equation (1): Inhibition %=(Max-Signal)/(Max-Min)*100, and the IC50 values was calculated in XL-Fit using Equation (2): Y = Bottom + (Top-Bottom)/(1+(IC50/X)[…]), Y is %inhibition and X is compound concentration.

The next data set addresses T2, BRD4 (BD1) (Homo sapiens, UniProt O60885).
T2 construct: purchased Reaction Biology Corp. RD-11-157
Description: HTRF assay BRD4 (BD1). The conditions noted are these: 10 μM, read-out: Inhibitory rate at 10 μM, BRD4 (BD1). It is filed as binding. The procedure: as §3

As to `O=c1[nH]cc(F)c(=O)[nH]1` [5-FU, 5-Fluorouracil, reference compound], the viability at 48 h, 10 µM in data set [1] came out at 80.4%. Moreover, the viability at 10 µM worked out at 43.9% with SW480 cells, 33.6% with SW620 cells and 40.7% in the data set on RKO cells.

With `CN(C)C(=S)SCc1ccc2oc(=O)ccc2c1` [ID-1, (2-Oxo-2H-chromen-6-yl)methyl dimethylcarbamodithioate], the melting point lay in the range of 151.6 to 152.5 °C. In addition, at BRD4 (BD2), the inhibition at 10 µM worked out at 1.5%. On BRD4 (BD1), the inhibition at 10 µM turned out to be 2.2%.

`CCN(CC)C(=S)SCc1ccc2oc(=O)ccc2c1` [ID-2, (2-Oxo-2H-chromen-6-yl)methyl diethylcarbamodithioate]: the melting point was 100.1 to 101 °C. Besides, the inhibition at 10 µM at BRD4 (BD2) is 5.1%. For the same molecule, the inhibition at 10 µM at BRD4 (BD1) was found to be 4.3%.

Turning to `CCCN(CCC)C(=S)SCc1ccc2oc(=O)ccc2c1` [ID-3, (2-Oxo-2H-chromen-6-yl)methyl dipropylcarbamodithioate], the melting point fell in the range of 52.3 to 53.2 °C. Moreover, the inhibition at 10 µM on BRD4 (BD2) came out at 3.3%. For the same molecule, at BRD4 (BD1), the inhibition at 10 µM is 1.6%.

On to `CCCCN(CCCC)C(=S)SCc1ccc2oc(=O)ccc2c1` [ID-4, (2-Oxo-2H-chromen-6-yl)methyl dibutylcarbamodithioate], for which the inhibition at 10 µM on BRD4 (BD2) came to 3.1%; on BRD4 (BD1), 4.2%.

Molecule `O=c1ccc2cc(CSC(=S)N3CCC3)ccc2o1` [ID-5, (2-Oxo-2H-chromen-6-yl)methyl azetidine-1-carbodithioate] displayed a melting point of 144 to 145 °C. Also, the inhibition at 10 µM at BRD4 (BD2) was determined as 5.8%. Moreover, the inhibition at 10 µM at BRD4 (BD1) came out at 6.2%.

In the case of `O=c1ccc2cc(CSC(=S)N3CC(O)C3)ccc2o1` [ID-6, (2-Oxo-2H-chromen-6-yl)methyl 3-hydroxyazetidine-1-carbodithioate], the melting point was 137.8 to 138.7 °C. Besides, the inhibition at 10 µM on BRD4 (BD2) is 8.7%. The inhibition at 10 µM on BRD4 (BD1) turned out to be 15%.

With `O=c1ccc2cc(CSC(=S)N3CCCC3)ccc2o1` [ID-7, (2-Oxo-2H-chromen-6-yl)methyl pyrrolidine-1-carbodithioate], the melting point was 110.2 to 111.1 °C. The inhibition at 10 µM on BRD4 (BD2) was 7.1%. Further, the inhibition at 10 µM at BRD4 (BD1) turned out to be 9.2%.

The molecule `O=c1ccc2cc(CSC(=S)N3CCCCC3)ccc2o1` [ID-8, (2-Oxo-2H-chromen-6-yl)methyl piperidine-1-carbodithioate] came in with a melting point of 130.1 to 131 °C. For the same molecule, the inhibition at 10 µM at BRD4 (BD2) came out at 8.2%. In addition, the inhibition at 10 µM on BRD4 (BD1) was determined as 7.8%.

Molecule `O=c1ccc2cc(CSC(=S)N3CCCCCC3)ccc2o1` [ID-9, (2-Oxo-2H-chromen-6-yl)methyl azepane-1-carbodithioate] yielded a melting point of 72.6 to 73.5 °C. Besides, the inhibition at 10 µM at BRD4 (BD2) came out at 5%. Moreover, the inhibition at 10 µM at BRD4 (BD1) turned out to be 6.3%.

Molecule `O=c1ccc2cc(CSC(=S)N3CCOCC3)ccc2o1` [ID-10, (2-Oxo-2H-chromen-6-yl)methyl morpholine-4-carbodithioate] returned a melting point of 135.4 to 136.3 °C. For the same molecule, the inhibition at 10 µM at BRD4 (BD2) was determined as 19.6%. The inhibition at 10 µM at BRD4 (BD1) was 27.2%.

With `CN1CCN(C(=S)SCc2ccc3oc(=O)ccc3c2)CC1` [ID-12, (2-Oxo-2H-chromen-6-yl)methyl 4-methylpiperazine-1-carbodithioate], the melting point was in the range of 124.3 to 125.2 °C. The inhibition at 10 µM on BRD4 (BD2) worked out at 26.5%. The inhibition at 10 µM at BRD4 (BD1) turned out to be 35.5%.

Take `CC(C)N1CCN(C(=S)SCc2ccc3oc(=O)ccc3c2)CC1` [ID-13, (2-Oxo-2H-chromen-6-yl)methyl 4-isopropylpiperazine-1-carbodithioate]: the melting point lay in the range of 73.6 to 74.5 °C. Besides, at BRD4 (BD2), the inhibition at 10 µM was 10.8%. At BRD4 (BD1), the inhibition at 10 µM came to 14.4%.

`CC(C)(C)N1CCN(C(=S)SCc2ccc3oc(=O)ccc3c2)CC1` [ID-14, (2-Oxo-2H-chromen-6-yl)methyl 4-(tert-butyl)piperazine-1-carbodithioate]: the melting point lay within 159.4 to 160.3 °C. Moreover, the inhibition at 10 µM on BRD4 (BD2) stood at 16.6%. In addition, on BRD4 (BD1), the inhibition at 10 µM turned out to be 12.8%.

As to `O=c1ccc2cc(CSC(=S)N3CCN(CCO)CC3)ccc2o1` [ID-15, (2-Oxo-2H-chromen-6-yl)methyl 4–(2-hydroxyethyl)piperazine-1-carbodithioate], the melting point lay within 120.9 to 121.8 °C. In addition, on BRD4 (BD2), the inhibition at 10 µM was 33.3%. For the same molecule, the inhibition at 10 µM at BRD4 (BD1) worked out at 40.2%.

For `O=c1ccc2cc(CSC(=S)N3CCN(C4CCCCC4)CC3)ccc2o1` [ID-16, (2-Oxo-2H-chromen-6-yl)methyl 4-cyclohexylpiperazine-1-carbodithioate], the melting point fell in the range of 106.9 to 107.8 °C. Moreover, the inhibition at 10 µM at BRD4 (BD2) turned out to be 12.9%. The inhibition at 10 µM at BRD4 (BD1) came to 20.1%.

On to `O=c1ccc2cc(CSC(=S)N3CCN(c4ccc(O)cc4)CC3)ccc2o1` [ID-17, (2-Oxo-2H-chromen-6-yl)methyl 4–(4-hydroxyphenyl)piperazine-1-carbodithioate], for which the melting point was 195.5 to 196.4 °C. On BRD4 (BD2), the inhibition at 10 µM was 27.7%. The inhibition at 10 µM at BRD4 (BD1) came out at 39%.

`N#Cc1ccc(N2CCN(C(=S)SCc3ccc4oc(=O)ccc4c3)CC2)cc1` [ID-18, (2-Oxo-2H-chromen-6-yl)methyl 4–(4-cyanophenyl)piperazine-1-carbodithioate] gave a melting point of 181.5 to 182.4 °C. Besides, on BRD4 (BD2), the inhibition at 10 µM is 8.4%. For the same molecule, the inhibition at 10 µM at BRD4 (BD1) stood at 11.8%.

For the molecule `O=c1ccc2cc(CSC(=S)N3CCC(c4ccccc4)CC3)ccc2o1` [ID-19, (2-Oxo-2H-chromen-6-yl)methyl 4-phenylpiperidine-1-carbodithioate], the melting point was in the range of 115.6 to 116.5 °C. The inhibition at 10 µM at BRD4 (BD2) worked out at 3.2%. For the same molecule, the inhibition at 10 µM at BRD4 (BD1) worked out at 6.5%.

The molecule `CN1CCN(C2CCN(C(=S)SCc3ccc4oc(=O)ccc4c3)CC2)CC1` [ID-20, (2-Oxo-2H-chromen-6-yl)methyl 4–(4-methylpiperazin-1-yl)piperidine-1-carbodithioate] gave a melting point of 95 to 96 °C. Also, the inhibition at 10 µM on BRD4 (BD2) was found to be 29.3%. In addition, the inhibition at 10 µM at BRD4 (BD1) turned out to be 36.6%.
